Measurements from patent US10869864B2, “Combinations for the treatment of cancer” (IGNYTA, INC., priority 2015, dated 2020).

Tests used:
[1] = test system: KM-12 TPM3-NTRK1 G595R cells; assay: Tumor growth in athymic nu/nu mice implanted subcutaneously with KM-12 TPM3-NTRK1 G595R cells; format: in vivo; settings: for Average tumor volume / Percent tumor growth inhibition (% TGI): entrectinib 60 mg/kg, trametinib 1 mg/kg, p.o. q.d.
Protocol: Athymic nu/nu mice, 6-7 weeks old, female mice were implanted subcutaneously (right flank) with 2 million KM-12 TPM3-NTRK1 G595R cells/mouse. Animals were randomized once the mean tumor volume reached ˜150 mm^3.
Trametinib in vivo oral dosing solution was made by dissolving trametinib in a solution of DMSO (Lot #: SHBG1596V, D8418-100ML, Sigma), PEG 400 (Lot #: MKBX3961V, 202398-500G, Sigma), Tween 80 (Lot #: MKB58228V, P4780-100ML, Sigma) and water. The final concentration of trametinib was 0.1 mg/mL and the amounts of each component in the resulting solution were 3.3% DMSO, 16.7% PEG 400, 15% Tween 80 and 65% water, with the water being added just prior to dosing.
Athymic nu/nu female mice between 6-7 weeks of age were ordered from Charles River. Animals were allowed to acclimate 3 days prior to the start of the study (e.g., cell implantation). Animals were housed in irradiated, individual HEPA ventilated cages (Innocage® IVC, Innovive USA) on a 12-hour light-dark cycle at 68-79° F. and 30-70% humidity. Animals were provided with irradiated chow (Teklad 2920X) and acidified drinking water (Innovive) ad libitum as per the animal care and use protocol established at Explora Biolabs (Ignyta ACUP # EB15-050). Animals were identified by uniquely numbered ear-tags.
(§1) KM12 cells were cultured, harvested, and suspended in 1:1 FBS free culture media:martigel at a concentration of 10 million cells/mL. Cells were implanted under the skin on the right flank of each mouse on day 0. The implantation volume was 200 μL/mouse. Tumors grew until the mean tumor volume reached approximately 130 mm^3. On day 8 mice were randomized into 6 treatment groups (10 mice/group) and treatment began. […] The final treatment for all groups was administered on day 17, for a total of 10 doses. The final tumor and body weight measurements were taken on the final day of dosing, day 17.
(§2) Tumors measurements and body weights were collected 2×/week over the duration of the study. Tumor growth was assessed by caliper and tumor volumes were calculated using the equation (1). Animals with tumor volumes >2,000 mm^3 were removed from study. Volume (mm^3)=[length (mm)×width (mm)×width (mm)]/2 (1)
The percentage of tumor growth inhibition (% TGI) was calculated for each treatment group at each tumor measurement. The % TGI values were calculated using equation (2) below, where TVvehicle is the tumor volume for the vehicle-treated animals at a specified time point, TVinitial is the initial tumor volume at the start of the treatment and TVtreatment is the tumor volume of the treatment group at a specified end-point time. Differences in tumor volumes were assessed by ANOVA using GraphPad Prism (version 6.07, GraphPad Software, Inc.). % TGI=[(TVvehicle−TVtreatment)/(TVvehicle−TVinitial)]×100

[2] = Tolerability, body weight and toxicity in the KM-12 TPM3-NTRK1 G595R mouse study; settings: any animals receiving trametinib 1 mg/kg p.o. q.d.
Protocol: as §1, §2

[3] = day 8 after cell implantation (randomization, treatment began)
[4] = day 8 after cell implantation (treatment began)
[5] = day 17 after cell implantation (10 doses)
[6] = day 17 after cell implantation (final day, 10 doses)

CC(=O)Nc1cccc(-n2c(=O)n(C3CC3)c(=O)c3c(Nc4ccc(I)cc4F)n(C)c(=O)c(C)c32)c1 [Trametinib]
tumor volume difference from vehicle, two-way ANOVA ([1]; by day 14, p<0.05): significantly different from vehicle
Average tumor volume [1, 3]: 146.7 mm^3
Percent tumor growth inhibition (% TGI) [1, 4]: 100.0%
Average tumor volume ([1]; day 11 after cell implantation): 254.8 mm^3
Percent tumor growth inhibition (% TGI) ([1]; day 11 after cell implantation): 51.5%
Average tumor volume ([1]; day 14 after cell implantation): 373.1 mm^3
Percent tumor growth inhibition (% TGI) ([1]; day 14 after cell implantation): 70.0%
Percent tumor growth inhibition (% TGI) [1, 5]: 76.7%
Average tumor volume [1, 6]: 544.9 mm^3
tumor volume difference from vehicle, one-way ANOVA ([1]; days 14 and 17): Differences were found
Toxicity (evaluated based on body weight loss) [2]: Toxicity was observed

CN1CCN(c2ccc(C(=O)Nc3n[nH]c4ccc(Cc5cc(F)cc(F)c5)cc34)c(NC3CCOCC3)c2)CC1 [Entrectinib, N-[5-(3,5-difluorobenzyl)-1H-indazol-3-yl]-4-(4-methyl-piperazin-1-yl)-2-(tetrahydro-pyran-4-ylamino)-benzamide]
Average tumor volume [1, 3]: 148.2 mm^3
Percent tumor growth inhibition (% TGI) [1, 4]: 100.0%
Average tumor volume ([1]; day 11 after cell implantation): 403.2 mm^3
Percent tumor growth inhibition (% TGI) ([1]; day 11 after cell implantation): −15.1%
Average tumor volume ([1]; day 14 after cell implantation): 934.5 mm^3
Percent tumor growth inhibition (% TGI) ([1]; day 14 after cell implantation): −4.5%
Percent tumor growth inhibition (% TGI) [1, 5]: −11.6%
Average tumor volume [1, 6]: 2057.8 mm^3
